From US11077169B2, “Soy-derived bioactive peptides for use in compositions and methods for wound healing, tissue engineering, and regenerative medicine” (Temple University-Of The Commonwealth System of Higher …, priority 2015, dated 2021)

Test system: HaCaT epithelial cells
Assay: wound closure in HaCaT cells with ethanol extracts and estrogen receptor antagonist
Format: cell-based, human

C[C@]12CC[C@@H]3c4ccc(O)cc4C[C@@H](CCCCCCCCC[S+]([O-])CCCC(F)(F)C(F)(F)F)[C@H]3[C@@H]1CC[C@@H]2O (some centres unmarked) [Fluvestrant]
effect on WSsoy-induced wound closure: did not affect | inhibition of SPI-induced wound closure (10 μM antagonist): significantly inhibited
